The values that follow come from patent US20120270929A1, “MODULATION OF TTC39 EXPRESSION TO INCREASE HDL” (ISIS Pharmaceuticals, Inc., priority 2009, published 2012).

Oligonucleotides are written 5' to 3', each unit as a sugar letter and its base; * is a phosphorothioate linkage, no mark a phosphodiester; rarer units and linkages stand in square brackets, end groups in braces. Plain capitals give the bases only. e = 2'-O-(2-methoxyethyl) (MOE); [5mC] = 5-methylcytosine; d = 2'-deoxy (DNA)

Data set [1] has as its system murine TTC39B mRNA. Nature of the data set: Antisense inhibition of murine TTC39B in mouse primary hepatocytes, single dose. The class given is cell-based. Conditions: 100 nM, cytofectin, ~24 h, vs untreated control. As for the experimental part: Antisense oligonucleotides targeted to a TTC39B nucleic acid were tested for their effects on TTC39B mRNA in vitro. Cultured mouse primary hepatocytes at a density of 10,000 cells per well were transfected using cytofectin reagent with 100 nM antisense oligonucleotide. After a treatment period of approximately 24 hours, RNA was isolated from the cells and TTC39B mRNA levels were measured by quantitative real-time PCR. TTC39B mRNA levels were adjusted according to total RNA content, as measured by RIBOGREEN®. Results are presented as percent inhibition of TTC39B, relative to untreated control cells.
The chimeric antisense oligonucleotides in Tables 1 and 2 were designed as 5-10-5 MOE gapmers. The gapmers are 20 nucleotides in length, wherein the central gap segment is comprised of 10 2′-deoxynucleotides and is flanked on both sides (in the 5′ and 3′ directions) by wings comprising 5 nucleotides each. Each nucleotide in the 5′ wing segment and each nucleotide in the 3′ wing segment has a 2′-MOE modification. The internucleoside linkages throughout each gapmer are phosphorothioate (P═S) linkages. All cytosine residues throughout each gapmer are 5-methylcytosines. “Target start site” indicates the 5′-most nucleotide to which the gapmer is targeted. “Target stop site” indicates the 3′-most nucleotide to which the gapmer is targeted. Each gapmer listed in Table 1 is targeted to SEQ ID NO: 6 (GENBANK Accession No. NM_027238.2) and each gapmer listed in Table 2 is targeted to SEQ ID NO: 10 (the complement of GENBANK Accession No. NT—039260.7 truncated at nucleotides 22491001 to 22601000), SEQ ID NO: 11 (GENBANK Accession No. BY244623.1), SEQ ID NO: 12 (GENBANK Accession No. BY260936), SEQ ID NO: 13 (GENBANK Accession No. BM935568.1) or SEQ ID NO: 14 (GENBANK Accession No. BY728780.1).

In data set [2] the test system is murine TTC39B mRNA. Nature of the data set: Dose-dependent antisense inhibition of murine TTC39B in mouse primary hepatocytes (Example 2). The class given is cell-based. Conditions: cytofectin, ~16 h. As for the experimental part:
Cells were plated at a density of 10,000 cells per well and transfected using cytofectin reagent with 25 nM, 50 nM, 100 nM, and 200 nM concentrations of antisense oligonucleotide, as specified in Table 3. After a treatment period of approximately 16 hours, RNA was isolated from the cells and TTC39B mRNA levels were measured by quantitative real-time PCR. Murine primer probe set mTtc39b_LTS00287 (forward sequence: […], incorporated herein as SEQ ID NO: 94; reverse sequence: […], incorporated herein as SEQ ID NO: 95; probe sequence: […], incorporated herein as SEQ ID NO: 96) was used to measure mRNA levels. TTC39B mRNA levels were adjusted according to total RNA content, as measured by RIBOGREEN®. Results are presented as percent inhibition of TTC39B, relative to untreated control cells.

Where [3] appears, read: gapmers targeted to SEQ ID NO: 6.

As to “AATGCCACCACCTTCAACCA (antisense eA*eA*eT*eG*e[5mC]*d[5mC]*dA*d[5mC]*d[5mC]*dA*d[5mC]*d[5mC]*dT*dT*d[5mC]*eA*eA*e[5mC]*e[5mC]*eA) [ISIS 447138]”, the “% inhibition of murine TTC39B mRNA” value in data set [1] (setting [3]) is given as 65%. Besides, the “percent inhibition of TTC39B mRNA” value in data set [2] (25 nM) is 20%; in data set [2] (50 nM), 49%; in data set [2] (100 nM), 68%; in data set [2] (200 nM), 86%.

For “ATGCCATTCTGGATGTCCTG (antisense eA*eT*eG*e[5mC]*e[5mC]*dA*dT*dT*d[5mC]*dT*dG*dG*dA*dT*dG*eT*e[5mC]*e[5mC]*eT*eG) [ISIS 447106]”, in data set [1] (setting [3]), the “% inhibition of murine TTC39B mRNA” value came out at 70%. In addition, the “percent inhibition of TTC39B mRNA” value was found to be 41% in data set [2] (25 nM), 55% in data set [2] (50 nM), 78% in data set [2] (100 nM) and 87% in data set [2] (200 nM).

Turning to “GAGATCAGTTTCTGATGAAA (antisense eG*eA*eG*eA*eT*d[5mC]*dA*dG*dT*dT*dT*d[5mC]*dT*dG*dA*eT*eG*eA*eA*eA) [ISIS 447169]”, the “% inhibition of murine TTC39B mRNA” value in data set [1] (gapmers targeted to SEQ ID NO: 10-14) turned out to be 67%. Moreover, the “percent inhibition of TTC39B mRNA” value in data set [2] (25 nM) is 17%; in data set [2] (50 nM) it was 43%; in data set [2] (100 nM), 65%; in data set [2] (200 nM), 81%.

Turning to “GAGTCCACCTTTGATGAAGT (antisense eG*eA*eG*eT*e[5mC]*d[5mC]*dA*d[5mC]*d[5mC]*dT*dT*dT*dG*dA*dT*eG*eA*eA*eG*eT) [ISIS 447110]”, the “% inhibition of murine TTC39B mRNA” value in data set [1] (setting [3]) was 69%. In addition, the “percent inhibition of TTC39B mRNA” value in data set [2] (25 nM) was 39%; in data set [2] (50 nM), 52%; in data set [2] (100 nM) it was 77%; in data set [2] (200 nM) it was 87%.

Turning to “GCCAATCTAAAAATGGCTCA (antisense eG*e[5mC]*e[5mC]*eA*eA*dT*d[5mC]*dT*dA*dA*dA*dA*dA*dT*dG*eG*e[5mC]*eT*e[5mC]*eA) [ISIS 447135]”, the “% inhibition of murine TTC39B mRNA” value in data set [1] (setting [3]) was determined as 67%. Moreover, the “percent inhibition of TTC39B mRNA” value in data set [2] (25 nM) came out at 35%; in data set [2] (50 nM), 52%; in data set [2] (100 nM) it was 66%; in data set [2] (200 nM), 76%.

As for “GCTCAGCTTGCAAGGGCCGC (antisense eG*e[5mC]*eT*e[5mC]*eA*dG*d[5mC]*dT*dT*dG*d[5mC]*dA*dA*dG*dG*eG*e[5mC]*e[5mC]*eG*e[5mC]) [ISIS 447127]”, the “% inhibition of murine TTC39B mRNA” value in data set [1] (setting [3]) amounted to 65%. The “percent inhibition of TTC39B mRNA” value in data set [2] (25 nM) is 40%; in data set [2] (50 nM) it was 62%; in data set [2] (100 nM) it was 84%; in data set [2] (200 nM), 90%.

As for “GGACTGCCTGCCATGGGTGC (antisense eG*eG*eA*e[5mC]*eT*dG*d[5mC]*d[5mC]*dT*dG*d[5mC]*d[5mC]*dA*dT*dG*eG*eG*eT*eG*e[5mC]) [ISIS 447146]”, in data set [1] (setting [3]), the “% inhibition of murine TTC39B mRNA” value was determined as 69%. In addition, the “percent inhibition of TTC39B mRNA” value is given as 44% in data set [2] (25 nM), 55% in data set [2] (50 nM), 78% in data set [2] (100 nM) and 89% in data set [2] (200 nM).

With “GGAGGTCCCCTGGCCACGGC (antisense eG*eG*eA*eG*eG*dT*d[5mC]*d[5mC]*d[5mC]*d[5mC]*dT*dG*dG*d[5mC]*d[5mC]*eA*e[5mC]*eG*eG*e[5mC]) [ISIS 447151]”, the “% inhibition of murine TTC39B mRNA” value in data set [1] (setting [3]) is listed as 65%. Further, the “percent inhibition of TTC39B mRNA” value in data set [2] (25 nM) is on record as 39%; in data set [2] (50 nM), 56%; in data set [2] (100 nM), 76%; in data set [2] (200 nM), 85%.

As for “GGCACTCTTTATATATTTGG (antisense eG*eG*e[5mC]*eA*e[5mC]*dT*d[5mC]*dT*dT*dT*dA*dT*dA*dT*dA*eT*eT*eT*eG*eG) [ISIS 447111]”, in data set [1] (setting [3]), the “% inhibition of murine TTC39B mRNA” value was determined as 71%. For the same sequence, the “percent inhibition of TTC39B mRNA” value was found to be 30% in data set [2] (25 nM), 60% in data set [2] (50 nM), 77% in data set [2] (100 nM) and 87% in data set [2] (200 nM).

For the sequence “GGTGGAGTCTGGCCCTCAGC (antisense eG*eG*eT*eG*eG*dA*dG*dT*d[5mC]*dT*dG*dG*d[5mC]*d[5mC]*d[5mC]*eT*e[5mC]*eA*eG*e[5mC]) [ISIS 447142]”, the “% inhibition of murine TTC39B mRNA” value in data set [1] (setting [3]) came to 66%. Besides, the “percent inhibition of TTC39B mRNA” value in data set [2] (25 nM) turned out to be 36%; in data set [2] (50 nM), 64%; in data set [2] (100 nM), 85%; in data set [2] (200 nM) it was 91%.

In the case of “GTTGCCTTGGACCATTTACT (antisense eG*eT*eT*eG*e[5mC]*d[5mC]*dT*dT*dG*dG*dA*d[5mC]*d[5mC]*dA*dT*eT*eT*eA*e[5mC]*eT) [ISIS 447122]”, the “% inhibition of murine TTC39B mRNA” value in data set [1] (setting [3]) worked out at 67%. Besides, the “percent inhibition of TTC39B mRNA” value in data set [2] (25 nM) is 35%; in data set [2] (50 nM) it was 61%; in data set [2] (100 nM), 78%; in data set [2] (200 nM), 88%.

As to “TCGAAATGTTTCTTGAGCCT (antisense eT*e[5mC]*eG*eA*eA*dA*dT*dG*dT*dT*dT*d[5mC]*dT*dT*dG*eA*eG*e[5mC]*e[5mC]*eT) [ISIS 447119]”, in data set [1] (setting [3]), the “% inhibition of murine TTC39B mRNA” value was determined as 65%. Further, the “percent inhibition of TTC39B mRNA” value in data set [2] (25 nM) was 28%; in data set [2] (50 nM), 52%; in data set [2] (100 nM), 80%; in data set [2] (200 nM), 77%.

Regarding “TGAATGCTATTATTGGATCT (antisense eT*eG*eA*eA*eT*dG*d[5mC]*dT*dA*dT*dT*dA*dT*dT*dG*eG*eA*eT*e[5mC]*eT) [ISIS 447140]”, the “% inhibition of murine TTC39B mRNA” value in data set [1] (setting [3]) was 66%. Also, the “percent inhibition of TTC39B mRNA” value in data set [2] (25 nM) is given as 29%; in data set [2] (50 nM), 55%; in data set [2] (100 nM), 77%; in data set [2] (200 nM), 80%.
